Laboratory results reported in article PMC4629473 (European journal of medicinal chemistry, 2015).
Read-outs that look alike come from different tables or passages of the source.

Legend:
[1] = molecular target: HIV-1 IN recombinant protein (Human immunodeficiency virus type 1 group M subtype B, UniProt P12497); assay: HIV-1 integrase 3′-processing gel-based assay; format: biochemical
HIV-1 = assay: Antiviral activity against HIV-1 in activated primary human PBM cells; format: cell-based; details: read-out: EC50 (μM), concentration required to induce 50% of inhibition
PBM cells = assay: Cytotoxicity in normal PBM cells; format: cell-based, human
CEM cells = assay: Cytotoxicity in CEM cells; format: cell-based
Vero cells = assay: Cytotoxicity in Vero cells; format: cell-based

| Compound | IC50 [1] [µM] | EC50 (HIV-1) [µM] | CC50 (PBM cells) [µM] | CC50 (CEM cells) [µM] | CC50 (Vero cells) [µM] | CC50 (PBM cells; read-out: CC50 (μM) PBM, PBM cells, concentration reducing cell growth by 50%) [µM] | CC50 (CEM cells; read-out: CC50 (μM) CEM, CEM cells, concentration reducing cell growth by 50%) [µM] | CC50 (Vero cells; read-out: CC50 (μM) VERO, VERO cells, concentration reducing cell growth by 50%) [µM] |
| --- | --- | --- | --- | --- | --- | --- | --- | --- |
| CCOC(=O)c1c(-c2ccccc2)nc(=O)n(Cc2ccc(C(=O)/C=C(\O)C(=O)O)cc2)c1C [4a, 4-[4-[(5-ethoxycarbonyl-6-methyl-2-oxo-4-phenyl-pyrimidin-1-yl)methyl]phenyl]-2-hydroxy-4-oxo-but-2-enoic acid] | > 111 |  |  |  |  |  |  |  |
| Ethyl (Z)-1-(4-(3-hydroxy-4-isopropoxy-4-oxobut-2-enoyl)benzyl)-4-(4-methoxyphenyl)-2-oxo-6-phenyl-1,2-dihydropyrimidine-5-carboxylate [4′l] |  | 80.6 | > 100 | 25.3 | > 100 |  |  |  |
| Ethyl (Z)-6-ethyl-1-(4-(3-(3-hydroxy-4-isopropoxy-4-oxobut-2-enoyl)benzyl)benzyl)-2-oxo-4-phenyl-1,2-dihydropyrimidine-5-carboxylate [19′] |  | 36.8 |  |  |  | 47.6 | 8.9 | > 100 |
